Activity calls are given as the source filed them.
Experiments:
Splenocyte [1] = test: Immunostimulatory activity in C57BL/6 mouse Splenocytes assessed as release of IL4 at 1000 ng/ml after 72 hrs by ELISA; format: functional, cell-based
Mus musculus [2] = test: Immunostimulatory activity in C57BL/6 mouse assessed as INF-gamma level in serum at 10 ug/ml, iv after 2 to 24 hrs by ELISA; format: functional, organism-based; settings: TDE = time-dependent effect
Mus musculus [3] = species: Mus musculus; test: Immunostimulatory activity in mouse DN3A4-1.2 hybridoma cells expressing TCR assessed as IL2 level after 24 to 48 hrs by ELISA; format: functional
Mus musculus [4] = test: Immunostimulatory activity in C57BL/6 mouse assessed as IL4 level in serum at 10 ug/ml, iv after 2 to 24 hrs by ELISA; format: functional, organism-based; settings: TDE = time-dependent effect
Mus musculus [5] = species: Mus musculus; test: Immunostimulatory activity in mouse N38.2H4 hybridoma cells expressing TCR assessed as IL2 level after 24 to 48 hrs by ELISA; format: functional
Mus musculus [6] = test: Immunostimulatory activity in C57BL/6 mouse assessed as maximum INF-gamma level in serum at 10 ug/ml, iv after 12 hrs by ELISA; format: functional, organism-based
Mus musculus [7] = test: Immunostimulatory activity in C57BL/6 mouse assessed as maximum IL4 level in serum at 10 ug/ml, iv after 4 hrs by ELISA; format: functional, organism-based
Mus musculus [8] = species: Mus musculus; test: Immunostimulatory activity in mouse DN3A4-1.4 hybridoma cells expressing TCR assessed as IL2 level after 24 to 48 hrs by ELISA; format: functional
Mus musculus [9] = species: Mus musculus; test: Immunostimulatory activity in mouse DN3A4-1.2 cells expressing TCR assessed as IL2 level after 24 hrs by ELISA in presence of mouse CD1d protein; format: functional, cell-based
N38.2H4 = test: Immunostimulatory activity in mouse N38.2H4 cells expressing TCR assessed as IL2 level after 24 by ELISA in presence of mouse CD1d protein; format: functional, cell-based
Splenocyte [10] = test: Immunostimulatory activity in C57BL/6 mouse Splenocytes assessed as release of IL4 after 72 hrs by ELISA; format: functional, cell-based
Mus musculus [11] = test: Immunostimulatory activity in C57BL/6 mouse assessed as maximum INF-gamma level in serum at 10 ug/ml, iv after 2 hrs by ELISA; format: functional, organism-based
Mus musculus [12] = test: Immunostimulatory activity in C57BL/6 mouse assessed as maximum IL4 level in serum at 10 ug/ml, iv after 2 hrs by ELISA; format: functional, organism-based

Measured: Activity

CCCCCCCCCCCCCCCCCCCCCCCCCC(=O)N[C@@H](CO[C@H]1O[C@H](CO)[C@H](OCCc2ccccc2)[C@H](O)[C@H]1O)[C@H](O)[C@H](O)CCCCCCCCCCCCCC
active: Splenocyte [1] | Mus musculus [2] tde | Mus musculus [3] | Mus musculus [4] tde | Mus musculus [5] | Mus musculus [6] | Mus musculus [7] | Mus musculus [8]

CCCCCCCCCCCCCCCCCCCCCCCCCC(=O)N[C@@H](CO[C@H]1O[C@H](CO)[C@H](OCCCc2ccccc2)[C@H](O)[C@H]1O)[C@H](O)[C@H](O)CCCCCCCCCCCCCC
active: Mus musculus [9] | N38.2H4 | Mus musculus [2] tde | Splenocyte [10] | Mus musculus [3] | Mus musculus [11] | Mus musculus [4] tde | Mus musculus [5] | Mus musculus [6] | Mus musculus [12] | Mus musculus [8]

CCCCCCCCCCCCCCCCCCCCCCCCCC(=O)N[C@@H](CO[C@H]1O[C@H](CO)[C@H](O)[C@H](O)[C@H]1O)[C@H](O)[C@H](O)CCCCCCCCCCCCCC
active: Mus musculus [9] | N38.2H4 | Mus musculus [2] tde | Mus musculus [11] | Mus musculus [4] tde | Mus musculus [12]

CCCCCCCCCCCCCCCCCCCCCCCCCC(=O)N[C@@H](CO[C@H]1O[C@H](CO)[C@H](OC(=O)c2ccccc2)[C@H](O)[C@H]1O)[C@H](O)[C@H](O)CCCCCCCCCCCCCC
active: Splenocyte [1] | Mus musculus [9] | N38.2H4 | Mus musculus [2] tde | Mus musculus [3] | Mus musculus [4] tde | Mus musculus [5] | Mus musculus [7] | Mus musculus [8]

Source: ChEMBL document CHEMBL1764967, “Introduction of aromatic group on 4'-OH of α-GalCer manipulated NKT cell cytokine production” (Bioorg Med Chem, 2011)
